These are literature values, as cited in US20240325353A1, “COMPOUND FOR TREATMENT OF COGNITIVE DISORDERS” (Syndesi Therapeutics SA, priority 2021, published 2024).

The conditions of series [1]: in vivo; cited from earlier work.
Series [2] has as its target T1, SV2A (Mus musculus, UniProt Q9JIS5).
T1 construct: host or cells: brain of audiogenic mice
As to conditions: audiogenic mice; cited from earlier work.

For series [3] the following is noted: animals and humans; cited from earlier work.
Series [4] has as its target T2, SV2A (Homo sapiens, UniProt Q7L0J3). Also on record: host or cells: human brain (prediction for patients). The following applies: cited from earlier work.
Target sequence in this assay (Q7L0J3 whole entry): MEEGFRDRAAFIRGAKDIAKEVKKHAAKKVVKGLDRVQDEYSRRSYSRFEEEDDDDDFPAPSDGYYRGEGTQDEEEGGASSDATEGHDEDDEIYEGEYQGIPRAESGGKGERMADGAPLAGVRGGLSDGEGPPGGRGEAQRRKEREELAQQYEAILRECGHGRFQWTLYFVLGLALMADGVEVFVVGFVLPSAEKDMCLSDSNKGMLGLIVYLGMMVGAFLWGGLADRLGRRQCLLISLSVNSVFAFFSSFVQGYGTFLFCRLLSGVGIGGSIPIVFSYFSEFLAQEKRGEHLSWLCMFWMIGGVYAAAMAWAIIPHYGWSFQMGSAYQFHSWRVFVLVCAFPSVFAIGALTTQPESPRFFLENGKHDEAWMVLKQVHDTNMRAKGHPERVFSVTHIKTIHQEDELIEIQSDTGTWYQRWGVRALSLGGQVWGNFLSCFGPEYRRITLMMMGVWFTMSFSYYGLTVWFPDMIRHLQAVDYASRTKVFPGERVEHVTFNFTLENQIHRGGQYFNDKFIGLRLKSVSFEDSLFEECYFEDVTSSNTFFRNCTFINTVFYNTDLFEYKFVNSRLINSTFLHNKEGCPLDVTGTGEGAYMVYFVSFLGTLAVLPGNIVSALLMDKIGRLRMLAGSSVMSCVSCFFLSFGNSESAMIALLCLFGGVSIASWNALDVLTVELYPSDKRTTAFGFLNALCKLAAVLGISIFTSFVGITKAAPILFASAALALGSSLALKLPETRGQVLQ
The target in series [5] is T2, SV2A. The following applies: cited from earlier work.
Target sequence in this assay (Q7L0J3 whole entry, species assumed): as the sequence (Q7L0J3 whole entry) above
The target of series [6] is T3, synaptic vesicle glycoprotein 2A (Homo sapiens, UniProt Q7L0J3).
T3 construct: from tissue; host or cells: brain of living healthy male subjects (PET)
T3 sequence (Q7L0J3 whole entry): as above
The following applies: oral 100 mg for 4 days; cited from earlier work.

Like-named read-outs stand apart in the source and are kept apart here.

T1 sequence (Q9JIS5 whole entry): as the sequence (Q7L0J3 whole entry) above, with S62A, T71A, E144D, A154T, G440S, S482A, I572V, M634L counted along it

As for `CC[C@H](C(N)=O)N1CCCC1=O` (single isomer, unassigned) [dextrorotatory enantiomer of levetiracetam], in series [1], the activity in epilepsy entry was “completely lacks activity”.

With `CC[C@@H](C(N)=O)N1CCCC1=O` [levetiracetam, (S)-(−)-alpha-ethyl-2-oxo-1-pyrrolidine acetamide], the “SV2A occupancy needed to protect against clonic seizure” value at SV2A [2] is reported as approximately 90%. Moreover, the “impact on the cognitive function” value in series [3] is listed as “no impact on the cognitive function”. Further, the figures for the “predicted SV2A occupancy at Cmin and Cmax” value on SV2A [4] (patients receiving a 1 g daily dose) and on SV2A [4] (patients receiving a 3 g daily dose) were 80 to 93% and 92 to 98%, respectively.

Take `CCC[C@@H]1CC(=O)N([C@@H](CC)C(N)=O)C1` [brivaracetam, (2S)-2-[(4R)-2-oxo-4-propyltetrahydro-1H-pyrrol-1-yl] butanamide]: the “affinity of binding to SV2A relative to levetiracetam” value on SV2A [5] is listed as “higher affinity than levetiracetam”. For the same compound, in series [6], the “SV2A occupancy at steady state, peak” value is 82-87% and the “SV2A occupancy at steady state, trough” value is given as 76-82%.
